Data taken from the NIST ThermoML archive (doi:10.1021/acs.jced.5b00242).

Experiments:
[1] = refractive index (Na D-line) (dimensionless); xn = mol fraction of the nth substance listed; conditions: 101 kPa, Liquid, Standard Abbe refractometry, x1 = 1
[2] = xn = mol fraction of the nth substance listed; conditions: 101 kPa, Liquid, x1 = 1; for viscosity: Stabinger Viscometer; for mass density: Vibrating tube method
[3] = refractive index (Na D-line) (dimensionless); conditions: 101 kPa, Liquid, Standard Abbe refractometry
[4] = Liquid; for viscosity: 101 kPa; for mass density: 101.33 kPa, Vibrating tube method

CCn1cc[n+](C)c1.N#C[C-](C#N)C#N [1-ethyl-3-methyl-1H-imidazolium tricyanomethanide] + CCn1cc[n+](C)c1.NCCS(=O)(=O)[O-]
Conditions | mass density, [2] [kg/m3] | refractive index, [1] | viscosity, [2] [mPa·s]
293.15 K | 1084.6 | 1.51454 | 16.62
298.15 K | 1081 | 1.51286 | 14.19
303.15 K | 1077.5 | 1.51114 | 12.18
308.15 K | 1073.9 | 1.50938 | 10.58
313.15 K | 1070.4 | 1.50765 | 9.02
318.15 K | 1067.1 | 1.50595 | 8.2
323.15 K | 1063.7 | 1.50419 | 7.31
328.15 K | 1060.3 | 1.50255 | 6.56
333.15 K | 1056.9 | 1.50087 | 5.72
338.15 K | 1053.6 | 1.49921 | 5.38
343.15 K | 1050.2 | 1.49757 | 4.91
348.15 K | 1046.8 | 1.49593 | 4.5
353.15 K | 1043.4 | 1.49429 | 3.98

CCn1cc[n+](C)c1.N#C[C-](C#N)C#N [1-ethyl-3-methyl-1H-imidazolium tricyanomethanide] + CCn1cc[n+](C)c1.O=C([O-])[C@@H]1CCCN1
Conditions | mass density, [2] [kg/m3] | refractive index, [1] | viscosity, [2] [mPa·s]
293.15 K | 1084.6 | 1.51454 | 16.62
298.15 K | 1081 | 1.51286 | 14.19
303.15 K | 1077.5 | 1.51114 | 12.18
308.15 K | 1073.9 | 1.50938 | 10.58
313.15 K | 1070.4 | 1.50765 | 9.02
318.15 K | 1067.1 | 1.50595 | 8.2
323.15 K | 1063.7 | 1.50419 | 7.31
328.15 K | 1060.3 | 1.50255 | 6.56
333.15 K | 1056.9 | 1.50087 | 5.72
338.15 K | 1053.6 | 1.49921 | 5.38
343.15 K | 1050.2 | 1.49757 | 4.91
348.15 K | 1046.8 | 1.49593 | 4.5
353.15 K | 1043.4 | 1.49429 | 3.98

CCn1cc[n+](C)c1.C[C@H](N)C(=O)[O-] [1-ethyl-3-methylimidazolium L-alaninate]
Conditions | mass density, [4] [kg/m3] | refractive index, [3]
293.15 K | 1126.3 | 1.51366
298.15 K | 1123 | 1.51223
303.15 K | 1119.8 | 1.51081
308.15 K | 1116.6 | 1.50937
313.15 K | 1113.5 | 1.50793
318.15 K | 1110.5 | 1.50651
323.15 K | 1107.5 | 1.50505
328.15 K | 1104.4 | 1.50358
333.15 K | 1101.3 | 1.50217
338.15 K | 1098.3 | 1.50074
343.15 K | 1095.2 | 1.49932
348.15 K | 1092.1 | 1.49795
353.15 K | 1088.9 | 1.49656

[4], Stabinger Viscometer
Conditions | viscosity [mPa·s]
293.15 K | 382.06
298.15 K | 263.98
303.15 K | 187.79
308.15 K | 137.47
313.15 K | 103.54
318.15 K | 79.34
323.15 K | 62.21
328.15 K | 49.69
333.15 K | 40.5
338.15 K | 33.22
343.15 K | 27.72
348.15 K | 23.38
353.15 K | 20.03

CCn1cc[n+](C)c1.NCC(=O)[O-] [1-ethyl-3-methylimidazolium ammonioacetate]
Conditions | mass density, [4] [kg/m3] | refractive index, [3]
293.15 K | 1164.3 | 1.52134
298.15 K | 1161.2 | 1.51997
303.15 K | 1158.1 | 1.5186
308.15 K | 1155 | 1.51724
313.15 K | 1152 | 1.51585
318.15 K | 1149 | 1.5145
323.15 K | 1146 | 1.51313
328.15 K | 1143 | 1.51179
333.15 K | 1139.9 | 1.51041
338.15 K | 1136.9 | 1.50904
343.15 K | 1133.8 | 1.50769
348.15 K | 1130.7 | 1.50637
353.15 K | 1127.4 | 1.50495

[4], Stabinger viscometer
Conditions | viscosity [mPa·s]
293.15 K | 240.18
298.15 K | 171.97
303.15 K | 126.19
308.15 K | 95.04
313.15 K | 73.5
318.15 K | 57.66
323.15 K | 46.21
328.15 K | 37.66
333.15 K | 31.24
338.15 K | 26.08
343.15 K | 22.11
348.15 K | 18.95
353.15 K | 16.45

CCn1cc[n+](C)c1.NCCS(=O)(=O)[O-] [1-ethyl-3-methylimidazolium taurinate]
Conditions | mass density, [4] [kg/m3] | refractive index, [3]
293.15 K | 1255 | 1.5135
298.15 K | 1251.5 | 1.51217
303.15 K | 1248.1 | 1.51084
308.15 K | 1244.8 | 1.5095
313.15 K | 1241.6 | 1.50816
318.15 K | 1238.6 | 1.5068
323.15 K | 1235.5 | 1.50543
328.15 K | 1232.4 | 1.50403
333.15 K | 1229.2 | 1.5027
338.15 K | 1226.1 | 1.50136
343.15 K | 1223 | 1.49997
348.15 K | 1219.9 | 1.4986
353.15 K | 1216.8 | 1.49726

[4], Stabinger Viscometer
Conditions | viscosity [mPa·s]
293.15 K | 760.89
298.15 K | 514.67
303.15 K | 359.36
308.15 K | 258.04
313.15 K | 190.44
318.15 K | 143.31
323.15 K | 110.35
328.15 K | 86.59
333.15 K | 69.36
338.15 K | 56.05
343.15 K | 46.1
348.15 K | 38.4
353.15 K | 32.53
